Results from patent US12202818B2, “Compounds and methods for CD73 modulation and indications therefor” (Opna Bio SA, priority 2020, dated 2025).

Key:
[1] = target: T1, Human CD73 (amino acid residues 27-549) (Homo sapiens, UniProt P21589); experiment: CD73 enzymatic assay (luciferase-based indirect assay, CellTiter-Glo); assay type: biochemical; conditions: 0.4 nM CD73, 150 μM AMP, 1 hour at room temperature
T1 construct: Human CD73 (amino acid residues 27-549); His tag (N); made in house; host or cells: E. coli
T1 sequence (P21589 27-549): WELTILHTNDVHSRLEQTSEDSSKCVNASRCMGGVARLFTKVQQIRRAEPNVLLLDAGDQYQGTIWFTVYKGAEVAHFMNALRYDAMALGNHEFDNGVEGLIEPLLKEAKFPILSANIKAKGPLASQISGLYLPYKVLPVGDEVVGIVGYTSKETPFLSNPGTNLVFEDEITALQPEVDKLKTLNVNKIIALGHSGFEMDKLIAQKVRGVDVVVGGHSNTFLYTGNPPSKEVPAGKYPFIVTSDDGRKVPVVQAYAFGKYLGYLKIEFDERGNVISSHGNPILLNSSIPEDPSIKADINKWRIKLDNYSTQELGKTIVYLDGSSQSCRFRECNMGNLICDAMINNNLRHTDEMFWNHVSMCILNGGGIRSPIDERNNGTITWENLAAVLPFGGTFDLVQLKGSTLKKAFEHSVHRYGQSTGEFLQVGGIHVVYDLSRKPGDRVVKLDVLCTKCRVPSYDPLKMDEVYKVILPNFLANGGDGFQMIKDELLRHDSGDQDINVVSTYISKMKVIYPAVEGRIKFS
Procedure, shortened: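 Luciferase-coupled readout: AMP left after CD73 turnover suppresses CellTiter-Glo signal (1 μM ATP final, 30 min RT). Reaction beforehand: 150 μM AMP, 0.4 nM E. coli-made His-tagged CD73 residues 27-549, test compound, HEPES pH 7.4 with Tween-20, 1 h RT. % inhibition fitted nonlinearly for IC50.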

human CD73 = target: T2, human CD73 (Homo sapiens, UniProt P21589); experiment: Inhibitor activity against CD73 in cell based assay (CD73 expressing CHO-K1 cells); conditions: CHO-K1 cells expressing human CD73, 150 μM AMP, 4 hours of incubation; read-out: CHO-K1 CELL_VARIANT: CD73 IC50
T2 construct: expressed in transfected cells
T2 sequence (P21589 27-549): T1 sequence (P21589 27-549)
Procedure, shortened: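 AMP (150 μM) was added alongside 8 titrated compound doses (maximum 10 μM, 1:3 steps) to CHO-K1 cells stably expressing human CD73. After 4 h, supernatant AMP was measured indirectly with CellTiter-Glo 2.0 plus 1 μM ATP (30 min, RT). % inhibition versus high and low controls was fitted nonlinearly for IC50.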

Row | SMILES | IC50 [1] | IC50 (human CD73)
1 | Cc1noc(C)c1-c1cc(F)nc(O[C@@H]2CCN(c3cn[nH]c(=O)c3Cl)C2)c1 [P-0195, (R)-4-chloro-5-(3-((4-(3,5-dimethylisoxazol-4-yl)-6-fluoropyridin-2-yl)oxy)pyrrolidin-1-yl)pyridazin-3(2H)-one] | 0.001 to 10 µM | 0.001 to 10 µM
2 | Cc1nn(C)c(C)c1-c1ccnc(O[C@@H]2CCN(c3cnn(CC(O)CO)c(=O)c3Cl)C2)c1 (stereo partly drawn) [P-0131, 4-chloro-2-(2,3-dihydroxypropyl)-5-((R)-3-((4-(1,3,5-trimethyl-1H-pyrazol-4-yl)pyridin-2-yl)oxy)pyrrolidin-1-yl)pyridazin-3(2H)-one] | 0.001 to 10 µM | 0.001 to 10 µM
3 | CC(C)c1cc(Nc2cccnc2O[C@@H]2CCN(c3cnn(CCO)c(=O)c3Cl)C2)n(C)n1 [P-0101, (R)-4-chloro-2-(2-hydroxyethyl)-5-(3-((3-((3-isopropyl-1-methyl-1H-pyrazol-5-yl)amino)pyridin-2-yl)oxy)pyrrolidin-1-yl)pyridazin-3(2H)-one] | 0.001 to 10 µM | 10 to 100 µM
4 | O=c1[nH]ncc(N2CC[C@@H](Oc3cc(C4CCOCC4)ccn3)C2)c1Cl [P-0072, (R)-4-chloro-5-(3-((4-(tetrahydro-2H-pyran-4-yl)pyridin-2-yl)oxy)pyrrolidin-1-yl)pyridazin-3(2H)-one] | 0.001 to 10 µM | 0.001 to 10 µM
5 | Cc1noc(C)c1-c1cnnc(O[C@@H]2CCN(c3cn[nH]c(=O)c3Cl)C2)c1 [P-0158, (R)-4-chloro-5-(3-((5-(3,5-dimethylisoxazol-4-yl)pyridazin-3-yl)oxy)pyrrolidin-1-yl)pyridazin-3(2H)-one] | 0.001 to 10 µM | 0.001 to 10 µM
6 | CCNS(=O)(=O)c1ccc(-c2ccnc(O[C@@H]3CCN(c4cn[nH]c(=O)c4Cl)C3)c2)cc1 [P-0243, (R)-4-(2-((1-(5-chloro-6-oxo-1,6-dihydropyridazin-4-yl)pyrrolidin-3-yl)oxy)pyridin-4-yl)-N-ethylbenzenesulfonamide] | 0.001 to 10 µM | 0.001 to 10 µM
7 | CC(=O)C1CC=C(c2ccnc(O[C@@H]3CCN(c4cn[nH]c(=O)c4Cl)C3)c2)CC1 (stereo partly drawn) [P-0068, 5-((3R)-3-((4-(4-acetylcyclohex-1-en-1-yl)pyridin-2-yl)oxy)pyrrolidin-1-yl)-4-chloropyridazin-3(2H)-one] | 0.001 to 10 µM | 0.001 to 10 µM
8 | Cc1noc(C)c1-c1cc(O[C@H]2CN(c3cn[nH]c(=O)c3Cl)C[C@@H]2F)ccn1 [P-0122, 4-chloro-5-((3S,4S)-3-((2-(3,5-dimethylisoxazol-4-yl)pyridin-4-yl)oxy)-4-fluoropyrrolidin-1-yl)pyridazin-3(2H)-one] | 0.001 to 10 µM | 0.001 to 10 µM
9 | Cc1nn(C)c(C)c1-c1ccnc(O[C@@H]2CCN(c3cnn(CCCO)c(=O)c3C#N)C2)c1 [P-0097, (R)-2-(3-hydroxypropyl)-3-oxo-5-(3-((4-(1,3,5-trimethyl-1H-pyrazol-4-yl)pyridin-2-yl)oxy)pyrrolidin-1-yl)-2,3-dihydropyridazine-4-carbonitrile] | 0.001 to 10 µM | 0.001 to 10 µM
10 | CNS(=O)(=O)c1ccc(-c2ccnc(O[C@@H]3CCN(c4cn[nH]c(=O)c4Cl)C3)c2)cc1 [P-0244, (R)-4-(2-((1-(5-chloro-6-oxo-1,6-dihydropyridazin-4-yl)pyrrolidin-3-yl)oxy)pyridin-4-yl)-N-methylbenzenesulfonamide] | 0.001 to 10 µM | 0.001 to 10 µM
11 | Cc1nn(CC2CCO2)c(C)c1-c1ccnc(O[C@@H]2CCN(c3cn[nH]c(=O)c3Cl)C2)c1 (stereo partly drawn) [P-0086, 4-chloro-5-((3R)-3-((4-(3,5-dimethyl-1-(oxetan-2-ylmethyl)-1H-pyrazol-4-yl)pyridin-2-yl)oxy)pyrrolidin-1-yl)pyridazin-3(2H)-one] | 0.001 to 10 µM | 0.001 to 10 µM
12 | CCCNS(=O)(=O)c1cc(F)c(-c2ccnc(O[C@@H]3CCN(c4cn[nH]c(=O)c4Cl)C3)c2)c(F)c1 [P-0208, (R)-4-(2-((1-(5-chloro-6-oxo-1,6-dihydropyridazin-4-yl)pyrrolidin-3-yl)oxy)pyridin-4-yl)-3,5-difluoro-N-propylbenzenesulfonamide] | 0.001 to 10 µM | 0.001 to 10 µM
13 | O=c1[nH]ncc(N2CC[C@@H](Oc3cc(-c4ccc(S(=O)(=O)NC5CC5)cc4)c(Cl)cn3)C2)c1Cl [P-0251, (R)-4-(5-chloro-2-((1-(5-chloro-6-oxo-1,6-dihydropyridazin-4-yl)pyrrolidin-3-yl)oxy)pyridin-4-yl)-N-cyclopropylbenzenesulfonamide] | 0.001 to 10 µM | 0.001 to 10 µM
14 | Cc1cc(S(=O)(=O)NC2CC2)ccc1-c1ccnc(O[C@@H]2CCN(c3cn[nH]c(=O)c3Cl)C2)c1 [P-0235, (R)-4-(2-((1-(5-chloro-6-oxo-1,6-dihydropyridazin-4-yl)pyrrolidin-3-yl)oxy)pyridin-4-yl)-N-cyclopropyl-3-methylbenzenesulfonamide] | 0.001 to 10 µM | 0.001 to 10 µM
15 | Cc1cnn(C)c1-c1cc(F)nc(O[C@@H]2CCN(c3cn[nH]c(=O)c3Cl)C2)c1 [P-0175, (R)-4-chloro-5-(3-((4-(1,4-dimethyl-1H-pyrazol-5-yl)-6-fluoropyridin-2-yl)oxy)pyrrolidin-1-yl)pyridazin-3(2H)-one] | 0.001 to 10 µM | 0.001 to 10 µM
16 | Cc1nn(CC2(F)COC2)c(C)c1-c1cc(F)nc(O[C@@H]2CCN(c3cn[nH]c(=O)c3Cl)C2)c1 [P-0133, (R)-4-chloro-5-(3-((6-fluoro-4-(1-((3-fluorooxetan-3-yl)methyl)-3,5-dimethyl-1H-pyrazol-4-yl)pyridin-2-yl)oxy)pyrrolidin-1-yl)pyridazin-3(2H)-one] | 0.001 to 10 µM | 0.001 to 10 µM
17 | O=c1[nH]ncc(N2CC[C@@H](Oc3cc(C4=CCNCC4)ccn3)C2)c1Cl [P-0075, (R)-4-chloro-5-(3-((1′,2′,3′,6′-tetrahydro-[4,4′-bipyridin]-2-yl)oxy)pyrrolidin-1-yl)pyridazin-3(2H)-one] | 0.001 to 10 µM | 0.001 to 10 µM
18 | Cc1noc(C)c1-c1cc(O[C@H]2CN(c3cn[nH]c(=O)c3Cl)C[C@@H]2F)ncn1 [P-0148, 4-chloro-5-((3S,4S)-3-((6-(3,5-dimethylisoxazol-4-yl)pyrimidin-4-yl)oxy)-4-fluoropyrrolidin-1-yl)pyridazin-3(2H)-one] | 0.001 to 10 µM | 0.001 to 10 µM
19 | Cc1cc(S(C)(=O)=O)ccc1-c1ccnc(O[C@@H]2CCN(c3cn[nH]c(=O)c3Cl)C2)c1 [P-0081, (R)-4-chloro-5-(3-((4-(2-methyl-4-(methylsulfonyl)phenyl)pyridin-2-yl)oxy)pyrrolidin-1-yl)pyridazin-3(2H)-one] | 0.001 to 10 µM | 0.001 to 10 µM
20 | CCCS(=O)(=O)N1CCN(c2ccnc(O[C@@H]3CCN(c4cn[nH]c(=O)c4Cl)C3)c2)CC1 [P-0239, (R)-4-chloro-5-(3-((4-(4-(propylsulfonyl)piperazin-1-yl)pyridin-2-yl)oxy)pyrrolidin-1-yl)pyridazin-3(2H)-one] | 0.001 to 10 µM | 0.001 to 10 µM
21 | Cc1nn(CC2COC2)c(C)c1-c1cc(O[C@@H]2CCN(c3cn[nH]c(=O)c3Cl)C2)ncn1 [P-0061, (R)-4-chloro-5-(3-((6-(3,5-dimethyl-1-(oxetan-3-ylmethyl)-1H-pyrazol-4-yl)pyrimidin-4-yl)oxy)pyrrolidin-1-yl)pyridazin-3(2H)-one] | 0.001 to 10 µM | 0.001 to 10 µM
22 | CCCn1nc(C)c(-c2cc(F)nc(O[C@@H]3CCN(c4cn[nH]c(=O)c4)C3)c2)c1C [P-0164, (R)-5-(3-((4-(3,5-dimethyl-1-propyl-1H-pyrazol-4-yl)-6-fluoropyridin-2-yl)oxy)pyrrolidin-1-yl)pyridazin-3(2H)-one] | 0.001 to 10 µM | 0.001 to 10 µM
